Where “and” joins values, the source holds several entries; their conditions need not be identical. Identical values can stand only once.
How the values were obtained:
[1] = in vitro; type: in vitro ADME, mouse; details: mouse, pH 7.4
[2] = system: WT mouse nasal mucosa microsomes; assay: in vitro; type: in vitro ADME; details: GS-DCBN formation; WT mouse nasal mucosa microsomes; mean ± SE, n=3
[3] = in vitro; type: in vitro ADME, mouse; details: Cyp2a5-null, mouse, pH 7.4
[4] = system: Cyp2a5-null mouse nasal mucosa microsomes; assay: in vitro; type: in vitro ADME
[5] = in vitro; type: in vitro ADME, human; details: both, human
[6] = system: human fetal nasal mucosa microsomes; assay: in vitro; type: in vitro ADME; details: GS-DCBN formation; human fetal nasal mucosa microsomes; mean ± SE, n=3
[7] = system: nasal mucosa; assay: Histopathological analysis of nasal mucosa in DCBN-treated WT mice; type: in vivo, mouse
[8] = system: nasal mucosa; assay: Histopathological analysis of nasal mucosa in DCBN-treated Cyp2a5-null mice; type: in vivo, mouse; details: DCBN 10 mg/kg single i.p., 24 h after treatment
[9] = Cyp2a5-null vs WT nasal mucosa microsomes

## N#Cc1c(Cl)cccc1Cl [DCBN, 2,6-dichlorobenzonitrile]
[1]
  Km: 0.43 ± 0.04 µM
[2]
  Vmax: 1050 ± 30 pmol/min/mg protein
[3]
  Km: 4.2 ± 0.6 µM
[4]; [9]
  decrease in apparent Vmax compared to WT mice: ~ 4 fold
  increase in apparent Km compared to WT mice: ~ 10 fold
  reduction of efficiency for GS-DCBN formation compared to WT mice: ~ 40 fold
[4]; GS-DCBN formation, Cyp2a5-null mouse nasal mucosa microsomes, mean ± SE, n=3
  Vmax: 253 ± 12 pmol/min/mg protein
[5]
  Km at 60 min: 0.45 ± 0.1 µM
[6]
  Vmax: 0.14 pmol/min/mg protein and 0.14 ± 0.01 pmol/min/mg protein
[7]; DCBN 10 mg/kg single i.p., 24 h after treatment
  histopathology of nasal mucosa: moderate injury to the nasal mucosa
[7]; DCBN 4 × 1 mg/kg s.c., 1.5-h intervals, 24 h after last treatment
  histopathology of nasal mucosa: essentially normal morphology
[8]
  histopathology of nasal mucosa: essentially normal olfactory epithelium and BG

Reference: article PMC3602354 (Chemical research in toxicology, 2013)
